Test results reported in patent publication US20110207660A1, “PHARMACEUTICAL FORMULATIONS OF AN HCV PROTEASE INHIBITOR IN A SOLID MOLECULAR DISPERSION” (Schering Corporation, priority 2008, published 2011).

What was measured:
[1] = Clinical Study 2: once-a-day 300 mg Compound I with 100 mg ritonavir for 10 days, healthy human subjects, fed; conditions: in vivo, steady state, Day 10, formulation G tablets 3×100 mg QD + 100 mg ritonavir QD, 8 healthy human subjects, read-out: Cmin Range
Procedure: The pharmacokinetic profile of Compound I following once-a-day oral administration of 300 mg Compound I in a formulation of the present invention in tablet form (specifically exemplary formulation G described in Table 3A, 3×100 mg, QD) in combination with 100 mg ritonavir (RTV, 1×100 mg, QD) for 10-days to healthy human subjects under fed conditions (i.e., following a standard meal) was determined. […] Blood was collected from each subject pre-dose (on Days 7, 8, and 9), as well as 0.5, 1, 1.5, 2, 3, 4, 5, 6, 7, 8, 10, 12, 16, and 24 hr post-dose (on Day 10) for determining the concentration of Compound I in the plasma and to calculate the pharmacokinetic parameters for each formulation.

[2] = in vitro IC90 of Compound I; conditions: reference line in FIGS. 5A and 5B
[3] = Biopharmaceutics Classification System class; type: physicochemical; conditions: low solubility and low permeability

CCCC[C@H](NC(=O)[C@@H]1[C@@H]2[C@H](CN1C(=O)[C@@H](NC(=O)NC1(CS(=O)(=O)C(C)(C)C)CCCCC1)C(C)(C)C)C2(C)C)C(=O)C(=O)NC1CC1 [Compound I]
concentration at 10 days [1]: 167 to 426 ng/mL | in vitro IC90 [2]: 0.028 µg/mL | Biopharmaceutics Classification System class [3]: Class IV
